Data as given in patent US6043024A, “Use of one-dimensional nuclear magnetic resonance to identify ligands to target biomolecules” (Abbott Laboratories, priority 1997, dated 2000).
Like-named read-outs stand apart in the source and are kept apart here.

What was measured:
FKBP [1] = molecular target: T1, FKBP (Homo sapiens, UniProt P62942); conditions: cited from earlier work
FKBP [2] = molecular target: T1, FKBP; experiment: Screening for binding using diffusion-filtered one-dimensional proton NMR spectroscopy; conditions: FKBP 50 μM, gradients 3 and 48 Gauss/cm, diffusion delay 300 ms, pH 6.5, 300K
Method: (§1) For all experiments, low and high gradient strengths correspond to 3 and 48 Gauss/cm, respectively. The high gradient strength was sufficient to eliminate the residual HDO signal in the sample. A diffusion delay time of 300 ms was used, the concentration of all chemical compounds was 100 μM, the concentration of FKBP was 50 μM, and the buffer was 50 mM PO4, 100 mM NaCl, pH 6.5 (95% D2 O).
as §1, with “48 Gauss/cm.” for “48 Gauss/cm,”, “[…]” for “50 mM”
(§2) Recombinant human FK binding protein (FKBP) was prepared as described in Logan et al., J. Mol. Biol., 236: 637-648 (1994).
The pulse sequence employed for exploiting the changes in diffusion rates of potential ligands in the presence of the target molecule that described by S. J. Gibbs and C. S. Johnson, Jr. J. Main. Reson. […]
(§3) All NMR spectra were recorded at 300K on a Bruker AMX500 NMR spectrometer. All spectra were recorded with 256 scans and a proton sweep width of 8333.3 Hz and a proton 90 degree pulse length of 7 μs. […] The NMR data were processed and analyzed on Silicon Graphics computers.

FKBP [3] = molecular target: T1, FKBP; experiment: Screening for binding using T2-filtered one-dimensional proton NMR spectroscopy; conditions: FKBP 50 μM, spin-lock 200 ms, pH 6.5, 300K
Method: For all experiments, the T2 -filter spin-lock time was 200 ms with a spin-echo delay of 1 ms, the concentration of compound 1 was 100 μM, the concentration of FKBP was 50 μM, and the buffer was 50 mM PO4, 100 mM NaCl, pH 6.5 (95% D2 O).
For all experiments, the T2 -filter spin-lock time was 200 ms with a spin-echo delay of 1 ms, the concentration of all chemical compounds was 100 μM, the concentration of FKBP was 50 μM, and the buffer was 50 mM PO4, 100 mM NaCl, pH 6.5 (95% D2 O).
Recombinant human FK binding protein (FKBP) was prepared as described in Logan et al., J. Mol. Biol., 236: 637-648 (1994). […]
In FIG. 1A, a CPMG sequence with a spin-lock time of 200 ms is applied to the compound in the absence of FKBP. […] These differences can be detected either by direct inspection, or by a spectral differencing method in which the spectrum of […] (after the spin-lock, FIG. 1C) is subtracted from the spectrum of the compound in the presence of FKBP (also after the spin-lock, FIG. 1B), resulting in the spectrum shown in FIG. 1D. […]
as §3

FKBP [4] = molecular target: T1, FKBP; experiment: KD estimated from absence of observed chemical shift changes in 15N-HSQC spectra of FKBP; type: binding; conditions: compounds 2-9; estimated from absence of chemical shift changes in 15N-HSQC spectra at compound concentrations of 1.0 mM
Method: as §2
from the absence of observed chemical shift changes in ^15 N--HSQC
spectra of FKBP at compound concentrations of 1.0 mM, as described in the […]

[5] = mixture of compounds 1-9, each 100 μM

T1 sequence (P62942 whole entry, the tested form may be a part): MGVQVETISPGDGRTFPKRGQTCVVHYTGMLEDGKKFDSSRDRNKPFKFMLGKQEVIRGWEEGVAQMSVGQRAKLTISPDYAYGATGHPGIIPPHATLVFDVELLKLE

Row | Compound | Kd (FKBP [4]) | also measured
1 | c1ccc(-c2ncc[nH]2)cc1 [Compound 1] |  | Kd (FKBP [1]; compound 1, obtained from S. Shuker, et al., Science 274:1531-1534 (1996), read-out: KD): 0.2 mM; Kd (FKBP [1]; read-out: affinity (binds to FKBP)): 0.2 mM; difference spectrum (FIG. 5E), diffusion-filtered, mixture of compounds 1-9 (FKBP [2]; [5]): positive resonances at the chemical shifts for compound 1 in the absence of FKBP; ligand binding detected using diffusion filters (FIGS. 4A-4E) (FKBP [2]; single compound 100 μM): demonstrated for FKBP binding to compound 1; difference spectrum (FIG. 2E), T2-filtered, mixture of compounds 1-9 (FKBP [3]; [5]): positive peaks which correspond to the positions of the reonances of compound 1 in the absence of FKBP; ligand signals after the spin lock time in the presence of FKBP (FKBP [3]; single compound, T2-filter, compound 100 μM): significantly reduced
2 | COc1cccc(O)c1 [Compound 3] | > 10 mM | 
3 | Nc1cc(-c2ccco2)n[nH]1 [Compound 6] | > 10 mM | 
4 | O=C(O)c1ccc(-c2cccs2)s1 [Compound 8] | > 10 mM | 

The next lines start with results.

Row | Kd (FKBP [4]) | Compound | also measured
5 | > 10 mM | O=C1CCc2ccccc2O1 [Compound 2] | 
6 | > 10 mM | OC(c1ccccc1)c1ccccc1 [Compound 4] | 
7 | > 10 mM | Oc1cccc(O)c1 [Compound 5] | 
8 | > 10 mM | COc1ccc(-c2ccc(C(=O)O)cc2)cc1 [Compound 7] | 
9 | > 10 mM | O=c1oc2ccccc2c(O)c1-c1ccccc1 [Compound 9] | 
